Laboratory results as given in patent US20030082200A1, “52 kda protein from coagulase negative staphylococci and fragments thereof” (priority 2000, published 2003).

Columns and labels:
[1] = system: immobilized Vn binding to S. epidermidis strain BD5703; assay: Inhibition test: binding of 3H-labeled bacteria to Vn coated wells; assay type: cell-based, Staphylococcus epidermidis; conditions: for Effect on BD5703 binding of immobilized Vn (in words): component added at the same time as bacteria
Description: (§1) ^3H-labeled bacteria were used for these tests. In brief, half a milliliter of an overnight cultured bacteria in TH broth was diluted in 5 ml TH broth containing 50 μCi of [methyl-^3H]thymidine (Amersham Plc., Buckinghamshire, UJK) and cultured for 5 hours at 37° C. on a gyrator shaker with vigorous agitation.
In another experiment, 50 μl bacteria (2×10^7cfu/ml) were mixed with the same volume of four mono-carbohydrates (0.1M D-fucose, 0.1M D-galactose, 0.1M D-glucose and 0.1M D-mannose), heparin (2 mg/ml), hyaluronic acid (2 mg/ml) or Vn (20 μg/ml). These mixtures with bacteria were incubated for 1 hour at 37° C. Heparin sodium salt and hyaluronic acid were purchased from Fluka Chemie AG, Buchs, Switzerland)
(§2) Finally, all wells were washed by PBS 5 times, individual wells were removed and immersed in 2.5 ml scintillation fluid (BDH chemicals, Pool, UK) and the radioactivity was counted in a liquid scintillation counter (Beckman Instruments, Fullerton, Calif., USA). Quantitation of relative binding percentage was achieved by the radioactivity from experimental groups in relation to the radioactivity from non-treated group.

[2] = system: 21 kDa protein of BD5703; assay: Autoradiograph inhibition test: labeled Vn binding to blotted surface proteins; design: species or system Staphylococcus epidermidis; conditions: competing proteins 10 μg/ml; heparin, hyaluronic acid 1 mg/ml; autoradiography
Description: (§3) SDS-PAGE was performed on mini-Protean II cell (Bio-Rad, Richmond, Calif.) as previously described (16). The bacterial surface structures were extracted by 1M lithium chloride (pH 5) with protease inhibitor (Boehringer Mannheim, Mannheim, Germany) at 37° C. for 2 hours with end to end rotation. Extract was subjected to homogenous gel (12%) or gradient gel (4-15%) electrophoresis. The running and transfer conditions were as previously described (17).
(§4) The PDVF membranes (Micron Separations INC., Westborough, USA) were saturated with incubation in blocking buffers I and II (buffer I containing 0.6% ethanolamine, 0.9% glycine, 1% polyvinylpyrrolidone and 25% methanol pH 9.6; buffer II containing 0.6% ethanolamine, 0.9% glycine, 0.05% gelatin hydrolysate and 0.125% Tween 20 pH 9.6) for 15 min respectively (18). Saturated membranes were rinsed three times in PBST (PBS with 1% Tween 20). Then, the membranes were incubated with ^125I-labeled Vn (0.4 μg/ml) in PBST or in PBST supplemented with 1.05 M sodium chloride (final sodium chloride concentration 1.2M) overnight at 20° C. The membranes were washed and dried, then examined by autoradiography with X-Omat AR film (Eastman Kodak) after 3 days storage at −70° C.
(§5) For inhibition tests, the membrane with retained bacterial surface molecules was cut to individual strips, and then incubated with labeled Vn (0.4 μg/ml) in PBST mixed with different unlabeled competing molecules, including Vn (10 μg/ml), fibronectin (10 μg/ml), fibrinogen (10μg/ml), thrombospondin ([…]), plasminogen (10 μg/ml), human immunoglobulins (10 μg/ml), hemopexin (10 μg/ml), heparin (1 mg/ml). In a separate experiment, the strips were preincubated with heparin (1 mg/ml) and hyaluronic acid (1 mg/ml) for 1 hour at 20° C. prior to adding labeled Vn.

[3] = system: 52 kDa protein of BD5703; assay: as above; design: species or system Staphylococcus epidermidis; conditions: competing proteins 10 μg/ml; heparin, hyaluronic acid 1 mg/ml; autoradiography
Description: as §3, §4, §5

[4] = system: 16 kDa protein of BD5703; assay: as above; design: species or system Staphylococcus epidermidis; conditions: competing proteins 10 μg/ml; heparin, hyaluronic acid 1 mg/ml; autoradiography
Description: as §3, §4, §5

[5] = system: 38 kDa protein of BD5703; assay: as above; design: species or system Staphylococcus epidermidis; conditions: competing proteins 10 μg/ml; heparin, hyaluronic acid 1 mg/ml; autoradiography
Description: as §3, §4, §5

[6] = system: immobilized Vn binding to S. epidermidis strain BD5703; assay: Inhibition test: binding of 3H-labeled bacteria to Vn coated wells; assay type: cell-based, Staphylococcus epidermidis
[7] = system: BD5703 surface proteins; assay: Autoradiograph inhibition test: labeled Vn binding to blotted surface proteins; design: species or system Staphylococcus epidermidis; conditions: unlabeled Vn 10 μg/ml; autoradiography
Description: as §3, §4, §5

[8] = system: immobilized S. epidermidis strain BD5703; assay: Binding of soluble 125I-labeled Vn to cells immobilized on ELISA plate wells; design: species or system Staphylococcus epidermidis; conditions: two-fold diluted 125I-Vn, maximally 5 μg/ml; FIG. 1
Description: (§6) Fifty micrograms of Vn was labeled with Na ^125I (Amersham Plc., Buckinghamshire, UK) using the modified chloramine-T method (specificity, 1×10^6 cpm/μg), and used in a minor modified soluble binding test with final reaction volume of 150 μl in PBS (15). During binding experiments, radiolabeled protein were diluted to approx. 0.025 μg (25,000cpm) and incubated with bacteria (10^9 cells per test tube). In an alternative method, cells of BD5703 were immobilized on ELISA plates (Costar Co., Cambridge, USA) by incubating 100 μl of bacterial suspension (2×10^7 cells in PBS) for 30 min at 37° C. Non-attached bacteria were removed by 3 washes with PBS. The remaining sites on the plastic were blocked by 2%, a bovine serum albumin in PBS (BSA-PBS) for 1 hour at 37° C. The wells were washed with PBS, and two-fold diluted ^125I-labeled Vn in 1% BSA-PBS (maximally 5 μg/ml) was added. Wells coated with 1% BSA served as background. After incubation at 37° C. for 45 min and washes with PBS, individual wells were removed and the radioactivity was measured in a gamma counter (LKB-Wallac, Turku, Finland).

[9] = system: S. aureus strain V8; assay: Bacterial binding of soluble 125I-labeled Vn; design: species or system Staphylococcus aureus; conditions: reference strain V8
Description: as §6

[10] = system: S. epidermidis strain BD5703; assay: Bacterial binding of soluble 125I-labeled Vn; design: species or system Staphylococcus epidermidis; conditions: less than 5% is considered as negative binding
Description: as §6

[11] = system: immobilized Vn; assay: Trypsin treatment of Vn-coated wells, binding assay with 3H labeled bacteria; assay type: cell-based; conditions: trypsin 2 μg/well, 37° C. for 2 hours
Description: The wells pre-adsorbed with Vn were trypsinized at a concentration of 2 μg/well in PBS with 1 mM CaCl2 (37° C. for 2 hours) following an additional incubation with soybean trypsin inhibitor (4 μg/well) at 37° C. for 30 min in same buffer (15). The wells were then blocked by BSA and subjected to binding assay with ^3H labeled bacteria.

[12] = system: S. epidermidis BD5703; assay: Proteolytic treatment of bacterial cells, binding of immobilized Vn; assay type: cell-based, Staphylococcus epidermidis; conditions: BD5703 cells treated with protease; non-treated control = 100
Description: as §1
(§7) 3H-labeled bacteria cells (5×10^8) were suspended in 1 ml PBS heated at 100° C. for 30 min and rapidly cooled. The same amount of bacteria was treated by pronase E, protease K and trypsin (Sigma Chemical Co., St. Louis, USA) as previously described (15). After washes in PBS, 100 μl (1×10^7 cells) treated bacterial suspension were added into the Vn coated wells.
as §2

[13] = system: S. aureus V8; assay: as above; assay type: cell-based, Staphylococcus aureus; conditions: V8 cells treated with protease; non-treated control = 100
Description: as §1, §7, §2

[14] = inhibitor 1 mg/ml, added at the same time as bacteria

Row | Compound | Effect on BD5703 binding of immobilized Vn (in words) [1] | Inhibition of labeled Vn binding to the 52 kDa band [3] | Inhibition of labeled Vn binding to the 16 kDa band [4] | Inhibition of labeled Vn binding to the 38 kDa band [5] | also measured
1 | C[C@@H](O)[C@H](O)[C@H](O)[C@@H](O)C=O [D-fucose] | not by carbohydrates |  |  |  | 
2 | O=C[C@H](O)[C@@H](O)[C@@H](O)[C@H](O)CO [D-galactose] | not by carbohydrates |  |  |  | 
3 | O=C[C@H](O)[C@@H](O)[C@H](O)[C@H](O)CO [D-glucose] | not by carbohydrates |  |  |  | 
4 | O=C[C@@H](O)[C@@H](O)[C@H](O)[C@H](O)CO [D-mannose] | not by carbohydrates |  |  |  | 
5 | Heparin sodium salt [Heparin 1] | reduced significantly | almost erase | almost erase | almost erase | Inhibition of labeled Vn binding to the 21 kDa band [2]: not 21 kDa; Inhibitory ability compared to hyaluronic acid ([1]; added at the same time as bacteria): more than 2 fold; Relative binding percentage [1, 14]: 18%; Effect on BD5703 binding of immobilized Vn (in words) ([6]; component preincubated with Vn coated wells): increased the binding; Relative binding percentage ([6]; inhibitor 1 mg/ml, preincubated with Vn coated wells for 2 hours, then bacteria added): 135%
6 | Soluble Vn: human vitronectin, purified; glycoprotein; also used 125I-labeled |  |  |  |  | Inhibition of binding of labeled Vn to BD5703 surface proteins [7]: could be inhibited; Relative binding percentage ([1]; inhibitor 10 μg/ml, added at the same time as bacteria, control without inhibitor = 100): 40%; Inhibition of binding of immobilized Vn ([1]; soluble Vn added with bacteria): about 60%; Binding of 125I-Vn to immobilized cells [8]: dose-related manner; Level of binding of radioactively labeled Vn in solution [9]: 14.2%; Level of binding of radioactively labeled Vn in solution [10]: more than 5%
7 | Trypsin |  |  |  |  | Bacterial binding after trypsin treatment of immobilized Vn [11]: no binding was obtained; Relative percentage binding of immobilized Vn [12]: 67%; Relative percentage binding of immobilized Vn [13]: 70%
8 | fibrinogen |  | slightly blocked | slightly blocked | slightly blocked | 
9 | fibronectin |  | slightly blocked | slightly blocked | slightly blocked | 
10 | hemopexin: human hemopexin, purified |  | slightly blocked | slightly blocked | slightly blocked | 
11 | hyaluronic acid | reduced significantly | inhibited |  | inhibited | Relative binding percentage [1, 14]: 41%
12 | plasminogen: human plasminogen from Sigma |  | slightly blocked | slightly blocked | slightly blocked | 
13 | thrombospondin: human thrombospondin |  | slightly blocked | slightly blocked | slightly blocked | 
